One assay deals with T1, human Gcg receptor (Homo sapiens, UniProt P47871).
T1 construct: expressed in transfected cells; crude membranes
Briefly: [125I]-Glucagon binding (SPA), human Gcg receptor. Particulars: read-out: hGLcgR Ki, nM (SEM, n). An outline of the steps: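 Crude membranes from cells expressing the receptor, prepared by hypotonic lysis in 50 mM Tris HCl pH 7.5 with protease inhibitors, homogenization and differential centrifugation, were used in a WGA-bead SPA. Binding buffer: 25 mM HEPES pH 7.4, 2.5 mM CaCl2, 1 mM MgCl2, bacitracin, Tween-20.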

The next assay concerns the target T2, human GIP receptor (Homo sapiens, UniProt P48546).
T2 construct: expressed in transfected cells; crude membranes
T2 sequence (P48546 22-466): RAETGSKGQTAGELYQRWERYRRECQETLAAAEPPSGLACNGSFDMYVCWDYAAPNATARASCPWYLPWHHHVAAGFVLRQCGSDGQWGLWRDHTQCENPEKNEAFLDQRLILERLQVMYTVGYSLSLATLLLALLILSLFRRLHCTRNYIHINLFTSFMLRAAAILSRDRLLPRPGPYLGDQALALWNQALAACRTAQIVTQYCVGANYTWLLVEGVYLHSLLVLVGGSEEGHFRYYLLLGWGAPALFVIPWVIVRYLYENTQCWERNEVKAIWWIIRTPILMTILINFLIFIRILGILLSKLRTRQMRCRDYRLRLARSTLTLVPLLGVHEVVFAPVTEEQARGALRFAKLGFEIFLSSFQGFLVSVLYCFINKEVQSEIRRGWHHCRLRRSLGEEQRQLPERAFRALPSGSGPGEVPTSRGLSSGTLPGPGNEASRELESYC
As to the kind of experiment: [125I]-GIP binding (SPA), human GIP receptor. Particulars: read-out: hGIPR Ki, nM (SEM, n).

The target in assay [1] is T3, gastric inhibitory peptide receptor (GIPR) (Homo sapiens, UniProt P48546).
T3 sequence (P48546 22-466): T2 sequence (P48546 22-466)
Briefly: cAMP pharmacological functional assay in presence of casein, hGIPR. The format is cell-based. Particulars: HEK293 cells expressing hGIPR, 0.1% Casein, geometric mean; read-out: hGIPR cAMP Rel EC50 nM (SEM, n).

The target in another assay is human GLP-1R (Homo sapiens, UniProt P43220). Briefly: [125I]-GLP-1 binding (SPA), human GLP-1 receptor. On the set-up: expressed in transfected cells; crude membranes. Particulars: read-out: hGLP1R Ki, (nM) (SEM, n). In a few lines: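 Crude-membrane binding assay; one membrane prep included 1 mM MgCl2 and 25 units/ml DNAse I during lysis. Assay buffer at pH 7.4 contains 0.1% (w/v) bacitracin and 0.003% (w/v) TWEEN-20. Ki is reported as geometric mean.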
Chain of human GLP-1R (P43220 24-463): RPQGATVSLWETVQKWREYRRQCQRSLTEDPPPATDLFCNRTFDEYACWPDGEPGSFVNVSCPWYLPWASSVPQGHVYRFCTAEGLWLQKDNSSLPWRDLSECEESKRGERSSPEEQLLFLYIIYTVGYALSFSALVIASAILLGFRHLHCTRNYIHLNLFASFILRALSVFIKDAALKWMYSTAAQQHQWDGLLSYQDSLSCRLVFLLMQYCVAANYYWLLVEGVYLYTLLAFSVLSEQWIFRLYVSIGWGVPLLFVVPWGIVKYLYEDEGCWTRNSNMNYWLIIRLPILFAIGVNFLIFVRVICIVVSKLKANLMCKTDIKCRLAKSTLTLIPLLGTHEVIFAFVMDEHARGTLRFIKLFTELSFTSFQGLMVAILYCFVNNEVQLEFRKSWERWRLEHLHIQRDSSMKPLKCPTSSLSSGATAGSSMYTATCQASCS

Assay [2] has as its target human GLP-1 receptor (GLP-1R) (Homo sapiens, UniProt P43220). As to the kind of experiment: cAMP pharmacological functional assay in presence of casein, hGLP-1R. Particulars: HEK293 cells expressing hGLP-1R, 0.1% Casein, geometric mean; read-out: hGLP1R cAMP Rel EC50 nM (SEM, n). Format: cell-based.

Each structure is given as a SMILES string. Numbered stars: 1 amine (or outer) side, 2 acyl side, 3 side chain; on linkers, the order of the positions; unused ones are H or OH. Square brackets hold non-standard residues; d marks the D form. Side chains are listed from the residue outwards. Peptide text beside a SMILES is read from it. * marks the point of attachment. C20 diacid = O=C(O)CCCCCCCCCCCCCCCCCCC(=O)*; C18 diacid = O=C(O)CCCCCCCCCCCCCCCCC(=O)*; αMePhe(2-F) = C[C@](N)(Cc1ccccc1F)C(=O)O; γGlu = O=C(O)[C@H](CCC(=O)[*:2])N[*:1]; αMeF = C[C@](N)(Cc1ccccc1)C(=O)O; AEEA = NCCOCCOCC(=O)O; Aib = CC(C)(N)C(=O)O

T1 sequence (P47871 26-477): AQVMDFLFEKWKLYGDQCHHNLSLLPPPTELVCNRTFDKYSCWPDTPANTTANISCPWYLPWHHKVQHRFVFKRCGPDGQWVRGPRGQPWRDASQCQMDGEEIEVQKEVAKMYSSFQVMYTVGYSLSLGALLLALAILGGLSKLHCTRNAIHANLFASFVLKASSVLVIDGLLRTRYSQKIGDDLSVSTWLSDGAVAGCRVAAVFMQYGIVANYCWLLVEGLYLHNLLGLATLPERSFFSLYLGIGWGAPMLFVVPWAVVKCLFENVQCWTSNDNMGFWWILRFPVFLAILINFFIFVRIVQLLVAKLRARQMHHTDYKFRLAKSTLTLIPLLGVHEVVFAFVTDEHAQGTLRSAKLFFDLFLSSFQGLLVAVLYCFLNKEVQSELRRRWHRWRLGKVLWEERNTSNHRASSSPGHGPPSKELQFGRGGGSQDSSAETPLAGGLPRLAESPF
Chain of human GLP-1 receptor (GLP-1R) (P43220 24-463): as the sequence (P43220 24-463) above

On to `CC[C@H](C)[C@H](NC(=O)[C@H](CC(C)C)NC(=O)[C@H](Cc1ccc(O)cc1)NC(=O)[C@H](CCC(=O)O)NC(=O)[C@@H](NC(=O)[C@H](Cc1ccccc1)NC(=O)[C@H](C)NC(=O)C(C)(C)NC(=O)[C@H](CCC(N)=O)NC(=O)[C@H](C)NC(=O)[C@H](CCCCNC(=O)COCCOCCNC(=O)COCCOCCNC(=O)CC[C@H](NC(=O)CCCCCCCCCCCCCCCCC(=O)O)C(=O)O)NC(=O)[C@H](CCCCN)NC(=O)[C@H](CC(=O)O)NC(=O)[C@H](CC(C)C)NC(=O)[C@H](CC(C)C)NC(=O)[C@@H](NC(=O)[C@H](CO)NC(=O)[C@H](Cc1ccc(O)cc1)NC(=O)[C@H](CC(=O)O)NC(=O)[C@H](CO)NC(=O)[C@@H](NC(=O)[C@H](Cc1ccccc1)NC(=O)[C@@H](NC(=O)CNC(=O)[C@H](CCC(=O)O)NC(=O)C(C)(C)NC(=O)[C@@H](N)Cc1ccc(O)cc1)[C@@H](C)O)[C@@H](C)O)[C@@H](C)CC)[C@@H](C)CC)C(=O)N[C@@H](C)C(=O)NCC(=O)NCC(N)=O` [Example 273] (H-Y[Aib]EGTFTSDYSILLDKK([AEEA-AEEA-γGlu-C18 diacid])AQ[Aib]AFIEYLIAGG-NH2), for which the Ki at human Gcg receptor turned out to be 724 nM; on human GIP receptor, 0.0698 nM; at human GLP-1R, 1.13 nM. For the same compound, the results for the EC50 in assay [1] and in assay [2] were 0.079 nM and 0.0352 nM, respectively.

As to `CC[C@H](C)[C@H](NC(=O)[C@H](CC(C)C)NC(=O)[C@H](Cc1ccc(O)cc1)NC(=O)[C@H](CCC(=O)O)NC(=O)[C@@H](NC(=O)[C@H](Cc1ccccc1)NC(=O)[C@H](CCC(=O)O)NC(=O)C(C)(C)NC(=O)[C@H](CCC(N)=O)NC(=O)[C@H](C)NC(=O)[C@H](CCCCNC(=O)COCCOCCNC(=O)COCCOCCNC(=O)CC[C@H](NC(=O)CCCCCCCCCCCCCCCCC(=O)O)C(=O)O)NC(=O)[C@H](CCCCN)NC(=O)[C@H](CC(=O)O)NC(=O)[C@H](CC(C)C)NC(=O)[C@H](CC(C)C)NC(=O)[C@@H](NC(=O)[C@H](CO)NC(=O)[C@H](Cc1ccc(O)cc1)NC(=O)[C@H](CC(=O)O)NC(=O)[C@H](CO)NC(=O)[C@@H](NC(=O)[C@](C)(Cc1ccccc1F)NC(=O)[C@@H](NC(=O)CNC(=O)[C@H](CCC(=O)O)NC(=O)C(C)(C)NC(=O)[C@@H](N)Cc1ccc(O)cc1)[C@@H](C)O)[C@@H](C)O)[C@@H](C)CC)[C@@H](C)CC)C(=O)N[C@@H](C)C(=O)NCC(=O)NCC(=O)N1CCC[C@H]1C(=O)N[C@@H](CO)C(=O)N[C@@H](CO)C(=O)NCC(N)=O` [Example 314] (H-Y[Aib]EGT[αMePhe(2-F)]TSDYSILLDKK([AEEA-AEEA-γGlu-C18 diacid])AQ[Aib]EFIEYLIAGGPSSG-NH2), the Ki at human Gcg receptor was 116 nM; at human GIP receptor, 0.027 nM; on human GLP-1R, 0.717 nM. The EC50 in assay [1] and in assay [2] was 0.029 nM throughout.

As for `CC[C@H](C)[C@H](NC(=O)[C@H](CCCCN)NC(=O)[C@H](CC(=O)O)NC(=O)[C@H](CC(C)C)NC(=O)[C@H](CC(C)C)NC(=O)[C@@H](NC(=O)[C@H](CO)NC(=O)[C@H](CCCCNC(=O)COCCOCCNC(=O)COCCOCCNC(=O)CC[C@H](NC(=O)CCCCCCCCCCCCCCCCCCC(=O)O)C(=O)O)NC(=O)[C@H](CC(=O)O)NC(=O)[C@H](CO)NC(=O)[C@@H](NC(=O)[C@H](Cc1ccccc1)NC(=O)[C@@H](NC(=O)CNC(=O)[C@H](CCC(=O)O)NC(=O)C(C)(C)NC(=O)[C@@H](N)Cc1ccc(O)cc1)[C@@H](C)O)[C@@H](C)O)[C@@H](C)CC)C(=O)N[C@@H](C)C(=O)N[C@@H](CCC(N)=O)C(=O)NC(C)(C)C(=O)N[C@@H](C)C(=O)N[C@@H](Cc1ccccc1)C(=O)N[C@H](C(=O)N[C@@H](CCC(=O)O)C(=O)N[C@@H](Cc1ccc(O)cc1)C(=O)N[C@@H](CC(C)C)C(=O)N[C@H](C(=O)N[C@@H](CCC(=O)O)C(=O)NCC(=O)NCC(=O)N1CCC[C@H]1C(=O)N[C@@H](CO)C(=O)N[C@@H](CO)C(=O)NCC(=O)N[C@@H](C)C(=O)N1CCC[C@H]1C(=O)N1CCC[C@H]1C(=O)N1CCC[C@H]1C(=O)N[C@@H](CO)C(N)=O)[C@@H](C)CC)[C@@H](C)CC` [Example 23] (H-Y[Aib]EGTFTSDK([AEEA-AEEA-γGlu-C20 diacid])SILLDKIAQ[Aib]AFIEYLIEGGPSSGAPPPS-NH2), the Ki at human Gcg receptor is more than 1010 nM; on human GIP receptor, 0.258 nM; at human GLP-1R it was 6.32 nM. For the same compound, the EC50 turned out to be 0.204 nM in assay [1] and 0.19 nM in assay [2].

As for `CC[C@H](C)[C@H](NC(=O)[C@H](CC(C)C)NC(=O)[C@H](Cc1ccc(O)cc1)NC(=O)[C@H](CCC(=O)O)NC(=O)[C@@H](NC(=O)[C@H](Cc1ccccc1)NC(=O)[C@H](C)NC(=O)C(C)(C)NC(=O)[C@H](CCC(N)=O)NC(=O)[C@H](C)NC(=O)[C@H](CCCCNC(=O)COCCOCCNC(=O)COCCOCCNC(=O)CC[C@H](NC(=O)CCCCCCCCCCCCCCCCC(=O)O)C(=O)O)NC(=O)[C@H](CCC(=O)O)NC(=O)[C@H](CC(=O)O)NC(=O)[C@H](CC(C)C)NC(=O)[C@H](CC(C)C)NC(=O)[C@@H](NC(=O)[C@H](CO)NC(=O)[C@H](Cc1ccc(O)cc1)NC(=O)[C@H](CC(=O)O)NC(=O)[C@H](CO)NC(=O)[C@@H](NC(=O)[C@](C)(Cc1ccccc1)NC(=O)[C@@H](NC(=O)CNC(=O)[C@H](CCC(=O)O)NC(=O)C(C)(C)NC(=O)[C@@H](N)Cc1ccc(O)cc1)[C@@H](C)O)[C@@H](C)O)[C@@H](C)CC)[C@@H](C)CC)C(=O)N[C@@H](CCC(=O)O)C(=O)NCC(=O)NCC(=O)N1CCC[C@H]1C(=O)N[C@@H](CO)C(=O)N[C@@H](CO)C(=O)NCC(N)=O` [Example 307] (H-Y[Aib]EGT[αMeF]TSDYSILLDEK([AEEA-AEEA-γGlu-C18 diacid])AQ[Aib]AFIEYLIEGGPSSG-NH2), the Ki at human Gcg receptor worked out at 117 nM; at human GIP receptor, 0.0773 nM; at human GLP-1R, 5.1 nM. Moreover, the EC50 in assay [1] was 0.0285 nM; in assay [2] it was 0.0437 nM.

`CC[C@H](C)[C@H](NC(=O)[C@H](CC(C)C)NC(=O)[C@H](Cc1ccc(O)cc1)NC(=O)[C@@H](CCC(=O)O)NC(=O)[C@@H](NC(=O)[C@H](Cc1ccccc1)NC(=O)[C@H](CCC(=O)O)NC(=O)C(C)(C)NC(=O)[C@H](CCC(N)=O)NC(=O)[C@H](C)NC(=O)[C@H](CCCCNC(=O)COCCOCCNC(=O)COCCOCCNC(=O)CC[C@H](NC(=O)CCCCCCCCCCCCCCCCC(=O)O)C(=O)O)NC(=O)[C@H](CCCN)NC(=O)[C@H](CC(=O)O)NC(=O)[C@H](CC(C)C)NC(=O)C(C)(C)NC(=O)[C@@H](NC(=O)[C@H](CO)NC(=O)[C@H](Cc1ccc(O)cc1)NC(=O)[C@H](CC(=O)O)NC(=O)[C@H](CO)NC(=O)[C@@H](NC(=O)C(C)(Cc1ccccc1F)NC(=O)[C@@H](NC(=O)CNC(=O)[C@H](CCC(=O)O)NC(=O)C(C)(C)NC(=O)[C@@H](N)Cc1ccc(O)cc1)[C@@H](C)O)[C@@H](C)O)[C@@H](C)CC)[C@@H](C)CC)C(=O)N[C@@H](CCC(=O)O)C(=O)NCC(=O)NCC(=O)N1CCC[C@H]1C(=O)N[C@@H](CO)C(=O)N[C@@H](CO)C(=O)NCC(=O)N[C@@H](C)C(=O)N1CCC[C@H]1C(=O)N1CCC[C@H]1C(=O)N1CCC[C@H]1C(=O)N[C@@H](CO)C(N)=O` (stereo partly shown) [Example 247]: the Ki on human Gcg receptor is more than 1100 nM; at human GIP receptor it was more than 55.1 nM; at human GLP-1R, 4.39 nM. For the same compound, the EC50 in assay [1] was 0.0622 nM; in assay [2], 0.0491 nM.

One may read the Ki as the dissociation constant of the complex between target and ligand, obtained from inhibition or displacement. For orientation: EC50 means the concentration at which the effect is half-maximal.

For the origin of these results see patent US12252524B2, “GIP/GLP1 co-agonist compounds” (Eli Lilly and Company, priority 2018, dated 2025).
